Test results from article PMC12337087 (Phytotherapy Research, 2025).

Molecular target: Phosphoglycerate mutase 1 (PGAM1) (Homo sapiens, UniProt P18669)
Assay: SPR
Assay type: binding

Sequence of Phosphoglycerate mutase 1 (PGAM1) (P18669 2-254): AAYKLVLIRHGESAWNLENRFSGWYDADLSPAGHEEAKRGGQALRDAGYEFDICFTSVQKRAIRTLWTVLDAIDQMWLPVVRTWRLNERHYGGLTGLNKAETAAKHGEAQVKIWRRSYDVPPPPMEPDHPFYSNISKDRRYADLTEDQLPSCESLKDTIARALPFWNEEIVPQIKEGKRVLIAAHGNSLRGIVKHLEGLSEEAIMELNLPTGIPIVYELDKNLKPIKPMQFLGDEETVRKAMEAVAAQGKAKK

SMILES: Cc1cccc2c3c(ccc12)C1=C(C(=O)C3=O)[C@@H](C)CO1 [DHT, Dihydrotanshinone I]
- Kd: 697 nM
